pIC50: −log10 of the molar value.
Molecular target: T1, CDK2/Cyclin E complex (Homo sapiens, UniProt P24941)
T1 construct: purchased Eurofins 14-475
Experiment: CDK2/Cyclin E fluorescence-based microfluidic mobility shift assay (CDK2 Biochemical Caliper Assay)
Conditions: read-out: Biochemical CDK2/CyclinE Caliper IC50
How it was run: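 Microfluidic mobility-shift readout after EDTA termination measured phosphorylation of fluorescent FL Peptide 18 (1.5 uM final) in a 20 hr room-temperature reaction. Compounds were tested at 11 concentrations (3-fold).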

pIC50	Structure (SMILES)
6.00 to 6.60	Cc1cc(CC(=O)Nc2cc([C@@H]3CC[C@H](Oc4cnccc4C4CC4)C3)[nH]n2)on1 (single isomer, unassigned) [Example 382]
6.60 to 7.00	CC(C)NC(=O)O[C@@H]1CO[C@H](c2cc(Nc3nccc4ncsc34)n[nH]2)C1 [Example 434]
≥ 7.00	Cc1ncccc1O[C@H]1CC[C@@H](c2cc(Nc3ccc4c(c3)C(C)(C)NC4=O)n[nH]2)C1 (single isomer, unassigned) [Example 547]
≥ 7.00	COCc1cc2c(Nc3cc([C@H]4C[C@@H](OC(=O)NC5(C)CC5)CO4)[nH]n3)nccn2n1 [Example 619]
4.00 to 6.00	Cc1cc(CC(=O)Nc2cc([C@@H]3CC[C@H](NC(=O)[C@H](O)C(C)C)C3)[nH]n2)on1 (single isomer, unassigned) [Example 453]
4.00 to 6.00	CCS(=O)(=O)N[C@H]1CC[C@@H](c2cc(NC(=O)Cc3cc(C)no3)n[nH]2)C1 (single isomer, unassigned) [Example 134]
≥ 7.00	COCc1cc(C(=O)Nc2cc([C@H]3CC[C@@H](Oc4cc(C(C)C)cnn4)C3)[nH]n2)n(C)n1 (single isomer, unassigned) [Example 492]
≥ 7.00	CCc1ccnnc1O[C@H]1CC[C@@H](c2cc(NC(=O)c3cc(COC)nn3C)n[nH]2)C1 (single isomer, unassigned) [Example 510]
4.00 to 6.00	Cc1cc(CC(=O)Nc2cc([C@@H]3C[C@@H](OC(=O)NC4(C)CC4)CO3)[nH]n2)on1 (single isomer, unassigned) [Example 109]
4.00 to 6.00	CC(C)NC(=O)O[C@H]1CC[C@@H](c2cc(Nc3ccsn3)n[nH]2)C1 (single isomer, unassigned) [Example 113]
6.60 to 7.00	CO[C@H](c1cc(C(=O)Nc2cc([C@H]3C[C@@H](OC(=O)NC4(C)CC4)CO3)[nH]n2)n(C)n1)C(F)(F)F (single isomer, unassigned) [Example 889]
≥ 7.00	C[C@H]1CC[C@H](C)N1C(=O)O[C@@H]1CO[C@H](c2cc(Nc3ccc4c(c3)C(C)(C)NC4=O)n[nH]2)C1 (single isomer, unassigned) [Example 590]
≥ 7.00	COCc1cc(C(=O)Nc2ncc([C@H]3C[C@@H](COC(=O)NC(C)C)C3)s2)n(C)n1 [Example 670]
≥ 7.00	CC(C)NC(=O)O[C@@H]1CO[C@H](c2cc(Nc3nccc4nccn34)n[nH]2)C1 [Example 648]
6.60 to 7.00	COCc1nc2ccnc(Nc3cc([C@H]4C[C@@H](OC(=O)NC(C)C)CO4)[nH]n3)c2s1 (single isomer, unassigned) [Example 467]
6.60 to 7.00	Cc1cc(CC(=O)Nc2cc([C@@H]3CC[C@H](N4CC(C)(C)NC4=O)C3)[nH]n2)on1 (single isomer, unassigned) [Example 118]
≥ 7.00	COCc1cc(C(=O)Nc2cc([C@H]3C[C@@H](OC(=O)NC4(C)CC4)CO3)[nH]n2)n(C)n1 [Example 880]
≥ 7.00	CC(C)NC(=O)O[C@@H]1CC[C@H](c2cc(Nc3nccn4nc(C(F)(F)F)cc34)n[nH]2)C1 (single isomer, unassigned) [Example 500]
≥ 7.00	CC(C)NC(=O)O[C@H]1CO[C@@H](c2cc(Nc3nccc4nccn34)n[nH]2)C1 [Example 649]
6.00 to 6.60	Cc1cc(CC(=O)Nc2cc([C@@H]3CC[C@H](Oc4cncnc4)C3)[nH]n2)on1 (single isomer, unassigned) [Example 363]
≥ 7.00	CC(C)NC(=O)O[C@@H]1CC[C@H](c2cc(Nc3ncnc4ncccc34)n[nH]2)C1 (single isomer, unassigned) [Example 400]
≥ 7.00	CC(C)NC(=O)OC[C@H]1C[C@@H](c2cc(NC(=O)c3cc(COC(F)(F)F)nn3C)n[nH]2)C1 [Example 646]
≥ 7.00	C[C@@H](NC(=O)O[C@@H]1CO[C@H](c2cc(NC(=O)c3cc(OCC(F)(F)F)nn3C)n[nH]2)C1)C1CC1 [Example 910]

pIC50	Structure (SMILES)
6.00 to 6.60	Cc1cc(CC(=O)Nc2cc(-c3csc4cnc(NC(C)C)nc34)[nH]n2)on1 [Example 336]
≥ 7.00	Cn1nc(C(F)F)cc1C(=O)Nc1cc([C@H]2C[C@@H](OC(=O)NC3(C)CC3)CO2)[nH]n1 [Example 786]
4.00 to 6.00	Cc1ncccc1O[C@@H]1CC[C@H](c2cc(Nc3ncnc4ncccc34)n[nH]2)C1 (single isomer, unassigned) [Example 486]
≥ 7.00	COCc1cc(C(=O)Nc2cc([C@H]3C[C@@H](COC(=O)NC(C)C)C3)[nH]n2)n(C)n1 [Example 460]
≥ 7.00	CC(=O)Nc1cc([C@@H]2CC[C@H](Oc3nscc3C3CC3)C2)[nH]n1 (single isomer, unassigned) [Example 422]
≥ 7.00	COCc1cc2c(Nc3cc([C@@H]4C[C@H](OC(=O)N[C@@H](C)C5CC5)CO4)[nH]n3)nccn2n1 [Example 766]
4.00 to 6.00	Cc1nc(Nc2cc(C3CCCC3)[nH]n2)cc2nncn12 [Example 797]
4.00 to 6.00	COCc1cc(C(=O)Nc2cc([C@@H]3C[C@H](OC)[C@@H](OC(=O)NC(C)C)C3)[nH]n2)n(C)n1 (single isomer, unassigned) [Example 569]
≥ 7.00	COCc1cc2c(Nc3cc([C@H]4C[C@@H](OC(=O)NC56CCC(CC5)OC6)CO4)[nH]n3)nccn2n1 [Example 716]
≥ 7.00	C[C@H]1CC[C@H](C)N1C(=O)O[C@H]1CO[C@@H](c2cc(Nc3ccc4c(c3)C(C)(C)NC4=O)n[nH]2)C1 (single isomer, unassigned) [Example 591]
≥ 7.00	Cc1cc(CC(=O)Nc2cc([C@@H]3C[C@H](OC(=O)NC4(C)CC4)CO3)[nH]n2)on1 (single isomer, unassigned) [Example 69]
6.60 to 7.00	CC(C)NC(=O)O[C@@H]1CO[C@H](c2cc(NC(=O)c3cc(CN4CCCC4)nn3C)n[nH]2)C1 [Example 634]
4.00 to 6.00	CC(C)c1[nH]ncc1O[C@H]1CO[C@@H](c2cc(Nc3nccn4nccc34)n[nH]2)C1 (single isomer, unassigned) [Example 585]
≥ 7.00	Cc1cc(CC(=O)Nc2cc([C@H]3CC[C@@H](Oc4cnccc4C4CC4)C3)[nH]n2)on1 (single isomer, unassigned) [Example 381]
≥ 7.00	COCc1nc2ccnc(Nc3cc([C@H]4C[C@@H](OC(=O)NC(C)(C)COC)CO4)[nH]n3)c2s1 [Example 701]
4.00 to 6.00	Cc1cc(CC(=O)Nc2cc([C@H]3CC[C@@H](NC(=O)c4ccccc4)C3)[nH]n2)on1 (single isomer, unassigned) [Example 131]
≥ 7.00	CC(C)NC(=O)O[C@H]1CO[C@@H](c2cc(Nc3nccn4nc(CN5CCC5)cc34)n[nH]2)C1 [Example 673]
4.00 to 6.00	c1cn2nc3c(c2c(Nc2cc(C4CCCC4)[nH]n2)n1)CCC3 [Example 869]
4.00 to 6.00	COCc1cc(C(=O)Nc2cc([C@H]3CC[C@H](c4cc(C(C)C)ncn4)C3)[nH]n2)n(C)n1 (single isomer, unassigned) [Example 603]
4.00 to 6.00	COCc1cc(C(=O)Nc2cc([C@H]3CC[C@H](c4ccc(C)cn4)C3)[nH]n2)n(C)n1 (single isomer, unassigned) [Example 599]
≥ 7.00	CC(C)c1ccnnc1OC[C@H]1C[C@@H](c2cc(Nc3nccn4nccc34)n[nH]2)C1 [Example 488]
4.00 to 6.00	Cc1cc(CC(=O)Nc2cc([C@H]3CC[C@@H](NC(=O)CC(C)C)C3)[nH]n2)on1 (single isomer, unassigned) [Example 129]

— patent US20240190855A1 (Relay Therapeutics, Inc., priority 2021, published 2024)
